Test results as given in US20100292214A1, “Compounds with Antiparasitic Activity, Applications thereof to the Treatment of Infectious Diseases Caused by Apicomplexans” (commissariat a l'Energie Atomique, priority 2007, published 2010).
pIC50: −log10 of the molar value. Where a name gives a salt, the structure may show the parent alone. Read-outs that look alike come from different tables or passages of the source.

Key:
[1] = tested on: asynchronous 3D7 chloroquine-sensitive P. falciparum infected red blood cells; test: Labeled hypoxanthine incorporation assay (in vitro anti-malarial activity); assay type: cell-based; settings: 3D7 chloroquine-sensitive strain, infected RBC, 48 h contact, [3H]-hypoxanthine incorporation, two independent experiments in duplicates, read-out: IC50 assessed on Plasmodium Falciparum
[2] = tested on: Toxoplasma gondii RH-β1 strain; test: microbe, parasite or virus in culture; assay type: cell-based; settings: read-out: IC50 assessed on Toxoplama Gondii
[3] = Plasmodium falciparum, 3D7, Erythrocyte

Compound | pIC50 [1, 3] | pIC50 ([2]; Toxoplasma gondii) | pIC50 ([1]; hydrochloride salt) | pIC50 ([2]; hydrochloride salt)
C[C@@H](COC(=O)N1CCC(n2c(=O)n3c4c(cccc42)C(=O)CCC3)CC1)N(Cc1ccccc1)Cc1ccccc1 [Compound 79, (S)(1-((2-(dibenzylamino)propoxy)carbonyl)piperidin-4-yl)-5,6-dihydro-imidazo[4,5,1,j,k][1]benzazepine-2,7(1H,4H)-dione] | 5.51 | 4.94 |  | 
O=C(OCCN(Cc1ccccc1)Cc1ccc(Cl)cc1)N1CCC(n2c(=O)[nH]c3ccccc32)CC1 [Compound 150, 2-(benzyl(4-chlorobenzyl)amino)ethyl 4-(2-oxo-2,3-dihydro-1H-benzo[d]imidazol-1-yl)piperidine-1-carboxylate] | 5.59 | 5.82 |  | 
O=C(OCCCN(Cc1ccccc1)Cc1cccs1)N1CCC(n2c(=O)[nH]c3ccccc32)CC1 [Compound 141, 3-(benzyl(thiophen-2-ylmethyl)amino)propyl 4-(2-oxo-2,3-dihydro-1H-benzo[d]imidazol-1-yl)piperidine-1-carboxylate hydrochloride] | 5.38 | 5.40 |  | 
O=c1[nH]c2ccccc2n1C1CCN(CCCN(Cc2ccccc2)Cc2ccccc2)CC1 [Compound 49, 1-(1-(3-(dibenzylamino)propyl)piperidin-4-yl)-1H-benzo[d]imidazol-2(3H)-one] | 5.90 | 6.10 |  | 
Cc1nc2ccccc2n1C1CCN(C(=O)OC[C@H](C)N(Cc2ccccc2)Cc2ccccc2)CC1 [Compound 15, (S)-2-(dibenzylamino)propyl 4-(2-methyl-1H-benzo[d]imidazol-1-yl)piperidine-1-carboxylate] | 5.62 | 5.47 |  | 
O=C(OCCN(Cc1ccccc1)Cc1ccccc1OCc1ccccc1)N1CCC(n2c(=O)[nH]c3ccccc32)CC1 [Compound 99, 2-(benzyl(2-(benzyloxy)benzyl)amino)ethyl 4-(2-oxo-2,3-dihydro-1H-benzo[d]imidazol-1-yl)piperidine-1-carboxylate] | 6.07 | 5.46 |  | 
C[C@@H](COC(=O)N1CCCC(n2c(=O)[nH]c3ccccc32)CC1)N(Cc1ccccc1)Cc1ccccc1 (stereo partly drawn) [Compound 13, (S)-2-(dibenzylamino)propyl 4-(1,2-dihydro-2-oxobenzo[d]imidazol-3-yl)azepane-1-carboxylate] | 4.97 | 5.30 |  | 
C[C@@H](COC(=O)N1CCC(N(c2ccccc2)S(=O)(=O)c2cccc3cccnc23)CC1)N(Cc1ccccc1)Cc1ccccc1 [Compound 160, (S)-2-(dibenzylamino)propyl 4-(N-phenylquinolin-8-ylsulfonamido)piperidine-1-carboxylate] | 5.97 | 5.57 |  | 
O=C(OCCCN(Cc1ccccc1)Cc1cccc(Oc2ccccc2)c1)N1CCC(n2c(=O)[nH]c3ccccc32)CC1 [Compound 146, 3-(benzyl(3-phenoxybenzyl)amino)propyl 4-(2-oxo-2,3-dihydro-1H-benzo[d]imidazol-1-yl)piperidine-1-carboxylate hydrochloride] | 5.71 | 5.82 |  | 
C[C@@H](COC(=O)N1CCC(Nc2ccccc2N)CC1)N(Cc1ccccc1)Cc1ccccc1 [Compound 87, (S)-2-(dibenzylamino)propyl 4-(2-aminophenylamino)piperidine-1-carboxylate] | 4.99 | 4.89 |  | 
CCN(CCOC(=O)N1CCC(n2c(=O)[nH]c3ccccc32)CC1)c1ccccc1 [Compound 41, 2-(ethyl(phenyl)amino)ethyl 4-(2-oxo-2,3-dihydro-1H-benzo[d]imidazol-1-yl)piperidine-1-carboxylate] | 4.61 | 5.74 |  | 
C[C@@H](COC(=O)N1CCC(Cn2c(=O)[nH]c3ccccc32)CC1)N(Cc1ccccc1)Cc1ccccc1 [Compound 19, (S)-2-(dibenzylamino)propyl 4-((1,2-dihydro-2-oxobenzo[d]imidazol-3-yl)methyl)piperidine-1-carboxylate] | 5.24 | 5.47 |  | 
Cn1c(=O)n(C2CCN(C(=O)OC[C@H](Cc3ccccc3)N(Cc3ccccc3)Cc3ccccc3)CC2)c2ccccc21 [Compound 68, (S)-2-(dibenzylamino)-3-phenylpropyl 4-(1,2-dihydro-1-methyl-2-oxobenzo[d]imidazol-3-yl)piperidine-1-carboxylate] | 6.34 | 6.10 |  | 
O=C(OC[C@H](Cc1ccccc1)N(Cc1ccccc1)Cc1ccccc1)N1CCC(n2c(=O)n(Cc3ccccc3)c3ccccc32)CC1 [Compound 37, (S)-2-(dibenzylamino)-3-phenylpropyl 4-(1-benzyl-1,2-dihydro-2-oxobenzo[d]imidazol-3-yl)piperidine-1-carboxylate, hydrochloride salt] |  |  | 6.06 | 5.74
C[C@@H](COC(=O)N1CCC(n2c(=O)n(CC3CCCCC3)c3ccccc32)CC1)N(Cc1ccccc1)Cc1ccccc1 [Compound 72, (S)-2-(dibenzylamino)propyl 4-(1-(cyclohexylmethyl)-1,2-dihydro-2-oxobenzo[d]imidazol-3-yl)piperidine-1-carboxylate] | 5.99 | 5.80 |  | 
O=C(OCCCN(Cc1ccccc1)Cc1ccnc2ccccc12)N1CCC(n2c(=O)[nH]c3ccccc32)CC1 [Compound 145, 3-(benzyl(quinolin-4-ylmethyl)amino)propyl 4-(2-oxo-2,3-dihydro-1H-benzo[d]imidazol-1-yl)piperidine-1-carboxylate hydrochloride] | 6.14 | 5.48 |  | 
C[C@@H](COC(=O)N1CCC(n2c(=O)[nH]c3ccccc32)CC1)N(Cc1ccccc1)Cc1cccc(Cl)c1 [Compound 128, (S)-2-(benzyl(3-chlorobenzyl)amino)propyl 4-(2-oxo-2,3-dihydro-1H-benzo[d]imidazol-1-yl)piperidine-1-carboxylate hydrochloride] | 5.69 | 5.30 |  | 
C[C@@H](COC(=O)N1CCC(n2c(=O)n(S(=O)(=O)c3cccc4ccccc34)c3ccccc32)CC1)N(Cc1ccccc1)Cc1ccccc1 [Compound 61, (S)-2-(dibenzylamino)propyl 4-(3-(naphthalen-1-ylsulfonyl)-2-oxo-2,3-dihydro-1H-benzo[d]imidazol-1-yl)piperidine-1-carboxylate] | 6.02 | 5.64 |  | 
COc1ccc(NC2CCN(C(=O)OC[C@H](C)N(Cc3ccccc3)Cc3ccccc3)CC2)c(OC)c1 [Compound 82, (S)-2-(dibenzylamino)propyl 4-(2,4-dimethoxyphenylamino)piperidine-1-carboxylate] | 5.62 | 5.14 |  | 
C[C@@H](COC(=O)N1CCC(n2c(=O)n(S(=O)(=O)c3cccs3)c3ccccc32)CC1)N(Cc1ccccc1)Cc1ccccc1 [Compound 59, (S)-2-(dibenzylamino)propyl 4-(2-oxo-3-(thiophen-2-ylsulfonyl)-2,3-dihydro-1H-benzo[d]imidazol-1-yl)piperidine-1-carboxylate] | 6.33 | 5.42 |  | 
C[C@@H](COC(=O)N1CCC(n2c(=O)[nH]c3ccccc32)CC1)N(Cc1ccccc1)Cc1ccnc2ccccc12 [Compound 133, (S)-2-(benzyl(quinolin-4-ylmethyl)amino)propyl 4-(2-oxo-2,3-dihydro-1H-benzo[d]imidazol-1-yl)piperidine-1-carboxylate hydrochloride] | 5.59 | 6.00 |  | 
